Measurements published in the supplement of paper PMC10307832.

Assays:
Test in all cases: relative viability (nuclei count vs DMSO), 5 days (fraction); higher = more cells survive
[1] = compound: O[C@@H](COc1cccc2ncccc12)CN1CCN([C@@H]2c3ccccc3[C@@H]3[C@H](c4ccccc42)C3(F)F)CC1 [Zosuquidar] + CC1(C)CCC(c2ccc(Cl)cc2)=C(CN2CCN(c3ccc(C(=O)NS(=O)(=O)c4ccc(N[C@H](CCN5CCOCC5)CSc5ccccc5)c(S(=O)(=O)C(F)(F)F)c4)cc3)CC2)C1 [Navitoclax] (partner 0.5 µM)
Procedure, shortened: (§1)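 Each reported value is a median over duplicate plates. It expresses relative viability: treated-well nuclei count divided by vehicle-well nuclei count. Lung cancer cell lines in 1536-well plates were dosed by pin tool a day after seeding, alone with one drug or with a fixed anchor-drug dose plus five library-drug doses (not always all listed) in √10 steps, and nuclei were counted after 5 days.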

[2] = compound: COc1cc2nccc(Oc3ccc(NC(=O)C4(C(=O)Nc5ccc(F)cc5)CC4)cc3)c2cc1OC [Cabozantinib] + Cc1cc(Nc2cc(N3CCN(C)CC3)nc(Sc3ccc(NC(=O)C4CC4)cc3)n2)n[nH]1 [Tozasertib] (partner 0.1 µM)
Procedure, shortened: as §1

[3] = compound: C1=CC(=CC=C1NC(=S)NNC2=C(C=C(C=C2[N+](=O)[O-])C(F)(F)F)[N+](=O)[O-])F [Kobe2602] + Cc1nc(NC(=O)N2CCC[C@H]2C(N)=O)sc1-c1ccnc(C(C)(C)C(F)(F)F)c1 [Alpelisib] (partner 2 µM)
Procedure, shortened: as §1

[4] = compound: O[C@@H](COc1cccc2ncccc12)CN1CCN([C@@H]2c3ccccc3[C@@H]3[C@H](c4ccccc42)C3(F)F)CC1 [Zosuquidar] + NC(=O)Nc1cc(-c2cccc(F)c2)sc1C(=O)N[C@H]1CCCNC1 [AZD7762] (partner 0.2 µM)
Procedure, shortened: as §1

| Cell Line | relative viability ([1]; first compound 0.01 µM) | relative viability ([1]; first compound 0.03162 µM) | relative viability ([1]; first compound 0.1 µM) | relative viability ([1]; first compound 0.3162 µM) | relative viability ([1]; first compound 1 µM) | relative viability ([2]; first compound 0.02 µM) | relative viability ([2]; first compound 0.06325 µM) | relative viability ([2]; first compound 0.2 µM) | relative viability ([2]; first compound 0.6325 µM) | relative viability ([2]; first compound 2 µM) | relative viability ([3]; first compound 0.2 µM) | relative viability ([3]; first compound 0.6325 µM) | relative viability ([3]; first compound 2 µM) | relative viability ([3]; first compound 6.325 µM) | relative viability ([3]; first compound 20 µM) | relative viability ([4]; first compound 0.01 µM) | relative viability ([4]; first compound 0.03162 µM) | relative viability ([4]; first compound 0.3162 µM) | relative viability ([4]; first compound 1 µM) | relative viability ([4]; first compound 0.1 µM) |
| --- | --- | --- | --- | --- | --- | --- | --- | --- | --- | --- | --- | --- | --- | --- | --- | --- | --- | --- | --- | --- |
| NCI-H727 | 0.426 | 0.528 | 0.328 | 0.454 | 0.391 | 0.53 | 0.777 | 0.513 | 0.513 | 0.554 | 0.625 | 0.518 | 0.614 | 0.571 | 0.728 | 0.502 | 0.573 | 0.714 | 0.405 |  |
| NCI-H1993 | 0.966 | 0.978 | 0.896 | 1.1 | 0.802 | 0.546 | 0.625 | 0.565 | 0.572 | 0.542 | 0.67 | 0.844 | 0.591 | 0.669 | 0.666 | 0.692 | 0.781 | 0.858 | 0.908 |  |
| LK-2 | 0.989 | 0.931 | 0.875 | 0.954 | 0.847 |  | 0.169 |  | 0.18 | 0.175 | 1.04 | 1.2 | 1.26 | 1.07 | 1.04 | 0.496 | 0.428 | 0.541 | 0.279 | 0.328 |
| NCI-H1915 | 0.756 | 0.79 | 0.796 | 0.802 | 0.743 | 0.46 | 0.447 | 0.471 | 0.435 | 0.416 | 1.1 | 1.09 | 1.02 | 1.06 | 1.05 | 0.714 | 0.699 | 0.816 | 0.756 | 0.613 |
| RERF-LC-KJ | 0.99 | 0.853 | 0.947 | 1.11 | 0.844 | 0.588 | 0.51 | 0.505 | 0.438 | 0.412 | 0.829 | 0.792 | 0.742 | 0.865 | 0.779 | 1.02 | 0.882 | 1.05 | 0.811 | 0.895 |
| NCI-H2085 | 1.13 | 1.06 | 1.06 | 1.2 | 1.14 | 0.87 | 0.852 | 0.818 | 0.655 | 0.527 | 1.04 | 0.99 | 0.894 | 1.01 | 1.05 | 0.983 | 1.04 | 1.03 | 0.99 |  |
| NCI-H2405 | 1.01 | 0.853 | 0.723 | 1.07 | 0.894 | 0.743 | 0.856 | 0.777 | 0.789 | 0.667 | 0.748 | 0.94 | 0.721 | 0.896 | 0.831 | 0.691 | 0.714 | 0.739 | 0.539 | 0.766 |
| 201T | 1.1 | 1.16 | 1.14 | 1.2 | 1.21 | 0.968 | 1.1 | 0.916 | 0.935 | 0.87 | 1.09 | 1.01 | 0.968 | 1.11 | 1.09 | 0.592 | 0.623 | 0.685 | 0.731 | 0.67 |
| NCI-H1755 | 0.988 | 1.01 | 0.954 | 1.07 | 0.949 | 0.673 | 0.666 | 0.618 | 0.529 | 0.539 | 0.906 | 0.874 | 0.919 | 0.866 | 0.956 | 0.399 | 0.461 | 0.497 | 0.436 | 0.398 |
| NCI-H1651 | 0.949 | 0.987 | 1.05 | 0.977 | 1.01 | 0.861 | 0.739 | 0.754 | 0.706 | 0.48 | 0.964 | 0.932 | 0.792 | 0.809 | 0.965 | 0.459 | 0.476 | 0.403 | 0.384 | 0.415 |
| NCI-H1437 | 1.08 | 1.1 | 1.06 | 1.15 | 1.15 | 0.413 | 0.454 | 0.411 | 0.428 | 0.347 | 0.938 | 1.01 | 0.914 | 0.956 | 0.938 | 1.19 | 1.16 | 1.03 | 1.19 | 1.14 |
| NCI-H1975 | 1.13 | 1.14 | 1.17 | 1.14 | 0.993 | 0.761 | 0.78 | 0.699 | 0.435 | 0.295 | 0.641 | 0.648 | 0.559 | 0.564 | 0.524 | 0.675 | 0.744 | 0.788 | 0.791 | 0.661 |
| BEN | 0.523 | 0.0629 | 0.0532 | 0.0672 | 0.0608 | 0.512 | 0.474 | 0.507 | 0.56 | 0.461 | 1.07 | 1.12 | 0.947 | 0.883 | 1.03 | 0.738 | 0.615 | 0.724 | 0.589 | 0.518 |
| NCI-H460 | 1.07 | 1.3 | 1.24 | 1.14 | 1.23 | 0.574 | 0.57 | 0.447 | 0.356 | 0.0953 | 0.513 | 0.55 | 0.507 | 0.499 | 0.444 | 0.54 | 0.571 | 0.607 | 0.509 | 0.6 |
| NCI-H1944 | 1.06 | 1.02 | 1 | 1.18 | 0.945 | 0.275 | 0.274 | 0.238 | 0.257 | 0.238 | 0.803 | 0.884 | 0.885 | 0.805 | 0.944 | 0.496 | 0.565 | 0.62 | 0.511 | 0.479 |
| HOP-62 | 0.825 | 1.13 | 0.939 | 0.924 | 0.975 | 0.398 | 0.388 | 0.378 | 0.376 | 0.346 | 1.05 | 0.846 | 0.934 | 0.809 | 1.25 | 0.619 | 0.771 | 0.802 | 0.631 | 0.512 |
